Data as given in patent US6890886B2, “Agricultural compositions employing organosiloxanes containing polyhydric groups” (General Electric Company, priority 2000, dated 2005).

What was measured:
[1] = Aqueous surface tension (Cahn microbalance, sand blasted platinum blade); assay type: physicochemical; settings: 0.1 wt % in 0.005M NaCl water (deionized), 25° C.
Experimental: Surface tension was measured using a Cahn microbalance, with a sand blasted platinum blade as the sensor. Solutions of the various components were prepared at 0.1 wt % in 0.005M NaCl water (Deionized), as an equilibrium aid. Aqueous solutions of these unique compositions provide a significant reduction in surface tension relative to conventional surfactants.

[2] = Spreading of a 10 μL droplet of surfactant solution on polyester film; assay type: physicochemical; settings: 10 μL droplet on polyester film (3M, IR 1140), after 30 seconds
Experimental: Spreading was determined by applying a 10 μL droplet of surfactant solution to a polyester film (3M, IR 1140 transparency film) and measuring the spread diameter after 30 seconds. The solution was applied with an automatic pipette to provide droplets of reproducible volume. Deionized water that was further purified with a Millipore filtration system was used to prepare the surfactant solutions.

Surface Tension (mN/m) [1]: 21 mN/m
Spread Diameter (mm) 0.1 wt% ([2]; 0.1 wt% solution): 44 mm
Spread Diameter (mm) 0.2 wt% ([2]; 0.2 wt% solution): 42 mm
Substance: Me3SiO[MeSi(C3H6O(C2H4O)8H)O]1SiMe3 [SIL-A]
